According to US20250352981A1, “PHOSPHOROUS BORON-BONDED COMPOUNDS FOR CAPTURING, STORING AND/OR UTILIZING CARBON DIOXIDE AND RELATED PRODUCTS COMPOSITIONS METHODS AND SYSTEMS” (California Institute of Technology, priority 2024, published 2025):

How the values were obtained:
[1] = DFT-predicted CO2 binding free energy and charge/bond-order analysis of phosphido-boranes
Description: (§1) All Density Functional Theory calculations were performed using the Jaguar v10.9 software from Schrodinger Inc. All calculations utilized the M06-2X meta-GGA functional with the D3 empirical correction for London Dispersion forces.^21, 22
(§2) All atoms were described by the 6-311G**++ Pople basis set,^23 augmented with polarization and diffuse functions.
(§3) All calculations included a continuum solvent treatment described by the Polarizable Continuum Model (CPCM).^24
(§4) Unless otherwise noted, we used solvent parameters matching tetrahydrofuran (dielectric constant=7.6, probe radius=2.52).
(§5) Vibrational frequency calculations were performed to confirm that all geometries are true minima (no negative eigenmodes of the Hessian) and to compute thermochemical properties such as enthalpy (H), entropy (S), and free energies (G) at 298.15 K. Because librational modes are hindered in solvent media, we corrected our free energies by reducing translational and rotational entropy modes by 50%.

[2] = DFT transition state barrier for CO2 binding; conditions: Li+ coordinated to a CO2 oxygen and the hydrides of BH3−
Description: as §1, §2, §3, §4, §5

[3] = CO2 gas bubbled through phosphido-borane salt in THF, NMR analysis; conditions: CO2 at 1 atm, room temperature
Description: Here 0.2218 g of the resulting phosphido-borane was dissolved in 3 ml of tetrahydrofuran (THF) in a 10 ml valve. Here 2 ml of THF was used to dissolve 0.1856 g of lithium bis(trimethylsilyl)amide (LiHMDS). The solution of LiHMDS was added drop wise to the solution of Li[Ph2PBH3] to minimize side reactions.
CO2 gas was then bubbled through lithiated anionic phosphido-borane salt at 1 atm and room temperature for about 10 mins to saturate it with CO2.
A typical one pot procedure for preparing the CO2 adducts was adding a solution of Ph2PHBH3 (5.314 mmol, in 4 ml of THF) to solution of MHMDs (5.314 mmol, in 4 ml of THF) dropwisely. An aliquot of the resulting was analyzed with the nmr to confirm the complete formation of M(Ph2PBH3) salt. The bulk solution was then saturated with CO2 gas under standard atmospheric pressure and temperature. The product was then crushed out with hexanes resulting in a whitish precipitate. Yield 98.5%

anionic diphenylphosphido-borane [BoPh 4]
increase in binding energy on increasing counterion distance ([1]; Li+ distance from the O—BH3 pocket increased by 0.35 Å): +5.9 kcal | increase of overall ΔG by explicit solvation ([1]; explicit THF solvation vs continuum): +2.9 kcal/mol | reduction of ΔG‡ relative to Na+ [2]: ~2 kcal/mol | CO2 binding observed in experiment ([3]; listed as LiPh2PBH3): binds successfully with the CO2 molecule | CO2 binding observed in experiment ([3]; listed as lithiated anionic phosphido-borane salt): formation of P—CO2 adducts
